# In PMC5093981 (Malaria Journal, 2016):
# Assays:
# PfRuvB3 [1] = assay: PfRuvB3 unwinding activity: requirement of co-factors and effects of salt/EDTA; format: biochemical, Plasmodium falciparum; settings: for Relative activity (%), PfRuvB3 unwinding activity: standard reaction = 35
# Procedure: (§1) Unwinding of [^32P]-labelled partial duplex DNA was employed as a measurement of helicase activity. The reaction mixture (10 µl) contained 20 mM Tris–HCl pH 9.0, 8 mM DTT, 2 mM MgCl2, 2 mM ATP, 10 mM KCl, 4% (w/v) sucrose, […] BSA, [^32P]-labelled DNA duplex substrate (Table 1) and purified PfRuvB3. The assay was performed at 37 °C for 90 min (unless indicated otherwise) and terminated with addition of 10X DNA loading dye (Fermentas, USA) and further incubation at 37 °C for 5 min. Helicase substrate and product were separated by 12% non-denaturing PAGE and then the gel was exposed to an X-ray film. DNA unwinding was quantified by densitometric analysis of exposed substrate and product bands using GeneTools (Syngene). Percent unwinding is calculated using the following formula: [band density of product [single-stranded (ss)DNA] / (band density of ssDNA + band density of substrate (duplex DNA)] × 100 minus [percent unwinding in the absence of enzyme].
# The ability of PfRuvB3 to hydrolyze different NTPs was studied by including 2 mM dATP, dCTP, dGTP, or dTTP in place of ATP in the standard reaction assay. The effects of ATP concentrations ranging from 0.3 to 20 mM on helicase activity were also determined. Divalent cation requirement was investigated mixture 2 mM CaCl2, CuCl2, NiSO4, ZnCl2, FeSO4, MnCl2 or MgSO4 in place of MgCl2. Effects of salt (0-200 mM NaCl in place of 10 mM KCl) and EDTA (5 mM) also were evaluated.
# PfRuvB3 [2] = assay: Effect of DNA helicase inhibitors on PfRuvB3 unwinding (helicase) activity; format: biochemical, Plasmodium falciparum; settings: recombinant PfRuvB3; M13-17-mer duplex DNA pre-incubated with 0.1 to 50 μM drug for 10 min; 37 °C 90 min
# Procedure: as §1
# Known DNA helicase inhibitors, aphidicolin genistein, daunorubicin, doxorubicin, mitoxantrone, and netropsin (Sigma, USA) were prepared as 10^−2 M stock solutions in dimethylsulfoxide (DMSO) and stored at −20 °C until used. All compounds were diluted with 10 mM Tris–HCl, pH 9.0 to specified concentrations for the assay. M13-17-mer duplex DNA was pre-incubated with 0.1 to 50 μM drug for 10 min prior to addition to the standard helicase assay mixture. The 0.5% (v/v final concentration) of DMSO was used as solvent control to determine its effects on helicase activity. The dose–response curves of relative activities of PfRuvB3 and various drug concentrations were generated, and half-maximal inhibitory concentration (IC50), the concentration of compound to inhibit enzyme activity by 50%, was obtained using GraphPad Prism 6.01 software.
# parasite growth = test system: parasite growth; design: method as in PMID 16772048; settings: read-out: IC50, parasite growth inhibition; cited from earlier work
# [3] = target: P. falciparum 45 kDa helicase (PfH45); design: method as in PMID 17822710; settings: cited from earlier work
# [4] = target: P. falciparum DNA helicase A (PfDH A); design: method as in PMID 16772048; settings: cited from earlier work
# [5] = target: P. falciparum 60 kDa DNA helicase (PfDH60); design: method as in PMID 16884495; settings: cited from earlier work
# [6] = target: P. falciparum UvrD helicase (PfUDN); settings: cited from earlier work
# [7] = target: human DNA helicase (HDH II); design: method as in PMID 1614415; settings: cited from earlier work
# [8] = test system: P. falciparum Dbp5/DDX19 homolog (PfD66); design: method as in PMID 21980563; settings: cited from earlier work
# [9] = 2 mM dNTP in place of ATP, 1 μg PfRuvB3
# [10] = 2 mM divalent cation salt in place of MgCl2, 1 μg PfRuvB3
smiles,measurement,setting,value
O=C(O)CN(CCN(CC(=O)O)CC(=O)O)CC(=O)O [EDTA],"Relative activity (%), PfRuvB3 unwinding activity",PfRuvB3 [1]; +EDTA (5 mM),<2%
same,Helicase function,PfRuvB3 [1]; EDTA 5 mM added to reaction mixture,complete loss of helicase function
Nc1ncnc2c1ncn2[C@H]1C[C@H](O)[C@@H](COP(=O)(O)OP(=O)(O)OP(=O)(O)O)O1 [dATP],"Relative activity (%), PfRuvB3 unwinding activity",PfRuvB3 [1]; [9],33%
Cc1cn([C@H]2C[C@H](O)[C@@H](COP(=O)(O)OP(=O)(O)OP(=O)(O)O)O2)c(=O)[nH]c1=O [dTTP],"Relative activity (%), PfRuvB3 unwinding activity",PfRuvB3 [1]; [9],<2%
C[C@@]1(CO)[C@H](O)CC[C@@]2(C)[C@H]1CC[C@H]1C[C@@H]3C[C@@]12CC[C@]3(O)CO [aphidicolin],IC50,PfRuvB3 [2],> 50000 nM
[Cl][Cu][Cl] [CuCl2],"Relative activity (%), PfRuvB3 unwinding activity",PfRuvB3 [1]; [10],36%
Nc1nc2c(ncn2[C@H]2C[C@H](O)[C@@H](COP(=O)(O)OP(=O)(O)OP(=O)(O)O)O2)c(=O)[nH]1 [dGTP],"Relative activity (%), PfRuvB3 unwinding activity",PfRuvB3 [1]; [9],<2%
[Cl][Ni][Cl] [NiCl2],"Relative activity (%), PfRuvB3 unwinding activity",PfRuvB3 [1]; [10],34%
[Ca+2].[Cl-].[Cl-] [CaCl2],"Relative activity (%), PfRuvB3 unwinding activity",PfRuvB3 [1]; [10],<2%
COc1cccc2c1C(=O)c1c(O)c3c(c(O)c1C2=O)C[C@@](O)(C(C)=O)C[C@@H]3O[C@H]1C[C@H](N)[C@H](O)[C@H](C)O1 [daunorubicin],IC50,parasite growth,2500 nM
same,IC50,[3],5000 nM
same,IC50,[4],2000 nM
same,IC50,[5],3000 nM
same,IC50,[6],4400 nM
same,IC50,[7],6230 nM
same,IC50,PfRuvB3 [2],760 nM
O=C1c2c(O)ccc(O)c2C(=O)c2c(NCCNCCO)ccc(NCCNCCO)c21 [mitoxantrone],IC50,PfRuvB3 [2],> 50000 nM
[Cl-].[Cl-].[Zn+2] [ZnCl2],"Relative activity (%), PfRuvB3 unwinding activity",PfRuvB3 [1]; [10],30%
Nc1ccn([C@H]2C[C@H](O)[C@@H](COP(=O)(O)OP(=O)(O)OP(=O)(O)O)O2)c(=O)n1 [dCTP],"Relative activity (%), PfRuvB3 unwinding activity",PfRuvB3 [1]; [9],<2%
O=c1c(-c2ccc(O)cc2)coc2cc(O)cc(O)c12 [genistein],IC50,PfRuvB3 [2],> 50000 nM
Cn1cc(NC(=O)c2cc(NC(=O)CN=C(N)N)cn2C)cc1C(=O)NCCC(=N)N [netropsin],IC50,[8],3200 nM
same,IC50,[3],800 nM
same,IC50,[5],500 nM
same,IC50,[6],3300 nM
same,IC50,PfRuvB3 [2],7090 nM
COc1cccc2c1C(=O)c1c(O)c3c(c(O)c1C2=O)C[C@@](O)(C(=O)CO)C[C@@H]3O[C@H]1C[C@H](N)[C@H](O)[C@H](C)O1 [doxorubicin],IC50,parasite growth,1500 nM
same,IC50,PfRuvB3 [2],2600 nM
[Cl-].[Na+] [NaCl],Unwinding activity of PfRuvB3,PfRuvB3 [1]; 100 mM NaCl,almost absent
same,"Relative activity (%), PfRuvB3 unwinding activity",PfRuvB3 [1]; +NaCl (200 mM),<2%
same,Enzyme activity inhibited,PfRuvB3 [1]; NaCl 200 mM,~98%
O=S(=O)([O-])[O-].[Fe+2] [FeSO4],"Relative activity (%), PfRuvB3 unwinding activity",PfRuvB3 [1]; [10],<2%
O=S(=O)([O-])[O-].[Mg+2] [MgSO4],"Relative activity (%), PfRuvB3 unwinding activity",PfRuvB3 [1]; [10],37%
[Cl][Mn][Cl] [MnCl2],"Relative activity (%), PfRuvB3 unwinding activity",PfRuvB3 [1]; [10],<2%
